Results: PubChem BioAssay AID1919004 (Molecular Pharmacology Branch, DTP, NCI, 2023)
“And” between values parts separate entries of the source, which are not always exact repeats. Equal entries are not always repeated.

Tested on: 883617-216-R-J1-PDC complex spheroids, growth, % test/control
Test: Anticancer human tumor 883617-216-R-J1-PDC patient-derived bladder carcinoma cell line growth inhibition [AhR]
Conditions: for viability, T/C: stronger effect = lower value
Excerpt: Multicellular complex tumor spheroid response to aryl hydrocarbon receptor antagonists in combination with a variety of drugs and investigational agents in selected tumor cell lines
The current study was undertaken to assess response to aryl hydrocarbon receptor antagonists in combination with standard-of-care drugs and investigational agents in solid tumor complex spheroid models. Complex spheroids include a stromal component modeled by human endothelial cells (HUVEC) and fibroblasts modeled by human mesenchymal stem cells (MSCs). The concentration ranges selected for each drug and investigational agent were based upon clinically achievable concentrations if the clinical Cmax of the agent was known.
Compounds. The drugs and investigational agents: BAY 2416964 (NSC825713), GNF351 (NSC835774), CH-223191 (NSC835775), CPI-455 (NSC825282), aza-TdCyd (NSC777586), decitabine (NSC127716), belinostat (NSC758774), entinostat (NSC756642), pevonedistat (NSC761192), tazemetostat (NSC777109), talazoparib (NSC765396), olaparib (NSC753686), selinexor (NSC780203), nedisertib (M3814, NSC802822), bortezomib (NSC756655), venetoclax (NSC766270), doxorubicin (NSC123127), elimusertib (BAY189344, NSC800525), ceralasertib (AZD6738, NSC777638), TAK-243 (NSC785004), alisertib (NSC759677), etoposide (NSC141540), topotecan (NSC609699), eribulin (NSC707389), gemcitabine (NSC613327), carboplatin (NSC241240), cisplatin (NSC119875), and SN-38 (NSC673596) were obtained from the National Cancer Institute (NCI) Developmental Therapeutics Program Chemical Repository (32). The FDA-approved anticancer drug set is available from the Developmental Therapeutics Program at https://dtp.cancer.gov/organization/dscb/obtaining/available plates.htm. […] The stock solutions were prepared in dimethyl sulfoxide (DMSO, Sigma-Aldrich, St. Louis, MO, cat. D2650), except for the platinum compounds which were prepared in saline (Quality Biological, Gaithersburg, MD, cat. 114-055-101), at 800-fold the tested concentration and stored at -70 degrees C prior to their use. All drugs and investigational agents were tested over a range starting from a high concentration at or near the clinical Cmax and decreasing in half-log increments. If the clinical Cmax for an agent had not been determined, the highest concentration tested was 10 microM (Table 1).
Cell Culture. All cells were maintained in an incubator at 37 degrees C and 5% CO2 with 95% humidity. The PDC lines were cultured according to standard operating procedures established by the NCI PDMR (https://pdmr.cancer.gov). Briefly, all PDCs were thawed and cultured in Matrigel-coated flasks prepared with a working solution of 1X Ham's F-12 nutrient mix, without supplementation (Invitrogen, Waltham, MA, cat. 11765054), 100 U/mL penicillin-streptomycin (Invitrogen, cat. 15140122), and 2.5% Matrigel (Corning Inc., Corning, NY, cat. 354248) for the first three passages. All PDCs were cultured in complete DMEM/F-12 media containing advanced DMEM/F-12 (Invitrogen, cat. 12634028), 4.9% defined fetal bovine serum, heat inactivated (HyClone Laboratories Inc., Logan, UT, cat. SH30070.03HI), 389 ng/mL hydrocortisone (Sigma-Aldrich, cat. H4001), 9.7 ng/mL human EGF recombinant protein (Invitrogen, cat. PHG0313), 23.4 microg/mL adenine (Sigma-Aldrich, cat. A2786), 97.3 U/mL penicillin-streptomycin (Invitrogen, cat. 15140122), 1.9 mM L-glutamine (Invitrogen, cat. 25030081), and 9.7 microM Y-27632 dihydrochloride (Tocris Bioscience, Bristol, United Kingdom, cat. 1254). The PDCs were cultured in complete DMEM/F12 media without 10 microM Y-27632 dihydrochloride for at least two passages prior to the screen. The established cell lines NCI-H1341 and […] were cultured in DMEM/F-12, HEPES (Invitrogen, cat. 11330032), 5% defined fetal bovine serum (HyClone Laboratories Inc., cat. SH30070.03), ITS premix universal culture supplement [insulin (5 microg/mL), transferrin (5 microg/mL), and selenious acid (5 ng/mL)] […]

[1] = curve of first compound, second compound 0.1 µM
[2] = curve of first compound, second compound 0.316 µM
[3] = curve of first compound, second compound 1 µM
[4] = curve of first compound, second compound 3.16 µM
[5] = curve of first compound, second compound 10 µM
[6] = second compound 0.1 µM, first compound 0.000316 µM
[7] = second compound 0.1 µM, first compound 0.001 µM
[8] = second compound 0.1 µM, first compound 0.00316 µM
[9] = second compound 0.1 µM, first compound 0.01 µM
[10] = second compound 0.1 µM, first compound 0.0316 µM
[11] = second compound 0.1 µM, first compound 0.1 µM
[12] = second compound 0.316 µM, first compound 0.000316 µM
[13] = second compound 0.316 µM, first compound 0.001 µM
[14] = second compound 0.316 µM, first compound 0.00316 µM
[15] = second compound 0.316 µM, first compound 0.01 µM
[16] = second compound 0.316 µM, first compound 0.0316 µM
[17] = second compound 0.316 µM, first compound 0.1 µM
[18] = second compound 1 µM, first compound 0.000316 µM
[19] = second compound 1 µM, first compound 0.001 µM
[20] = second compound 1 µM, first compound 0.00316 µM
[21] = second compound 1 µM, first compound 0.01 µM
[22] = second compound 1 µM, first compound 0.0316 µM
[23] = second compound 1 µM, first compound 0.1 µM
[24] = second compound 3.16 µM, first compound 0.000316 µM
[25] = second compound 3.16 µM, first compound 0.001 µM
[26] = second compound 3.16 µM, first compound 0.00316 µM
[27] = second compound 3.16 µM, first compound 0.01 µM
[28] = second compound 3.16 µM, first compound 0.0316 µM
[29] = second compound 3.16 µM, first compound 0.1 µM
[30] = second compound 10 µM, first compound 0.000316 µM
[31] = second compound 10 µM, first compound 0.001 µM
[32] = second compound 10 µM, first compound 0.00316 µM
[33] = second compound 10 µM, first compound 0.01 µM
[34] = second compound 10 µM, first compound 0.0316 µM
[35] = second compound 10 µM, first compound 0.1 µM
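Further: exposure lasted 7 days after dosing on day 3 of spheroid growth.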

With `CC[C@@]1(O)C(=O)OCc2c1cc1n(c2=O)Cc2cc3c(CN(C)C)c(O)ccc3nc2-1` + Cc1ccccc1N=Nc1ccc(NC(=O)c2ccnn2C)c(C)c1 the IC50 [1] was greater than 100 nM, the IC50 [2] was greater than 100 nM and the IC50 [3] was greater than 100 nM. It also gave an IC50 [4] greater than 100 nM, an IC50 [5] greater than 100 nM and a viability, T/C [6] of 90.7%. The viability, T/C [7] was 85%, the viability, T/C [8] was 86.3% and the viability, T/C [9] was 80.3%. For the same molecule, the viability, T/C [10] was 76.9%, the viability, T/C [11] was 71.1% and the viability, T/C [12] was 86.8%. The viability, T/C [13] was 86.6%, the viability, T/C [14] was 76.2% and the viability, T/C [15] was 73%. The viability, T/C [16] was 70%, the viability, T/C [17] was 62% and the viability, T/C [18] was 82.5%. For the same molecule, the viability, T/C [19] was 80.3%, the viability, T/C [20] was 79.4% and the viability, T/C [21] was 71.4%. The viability, T/C [22] was 66%, the viability, T/C [23] was 69.6% and the viability, T/C [24] was 70%. It also gave a viability, T/C [25] of 79.1%, a viability, T/C [26] of 78.6% and a viability, T/C [27] of 74.7%. It also gave a viability, T/C [28] of 70.7%, a viability, T/C [29] of 71.3% and a viability, T/C [30] of 74.2%. It also gave a viability, T/C [31] of 80.7%, a viability, T/C [32] of 78% and a viability, T/C [33] of 70.9%. The viability, T/C [34] was 75.6% and the viability, T/C [35] was 73%.
`NS(=O)(=O)OCC1CC(n2ccc3c(NC4CCc5ccccc54)ncnc32)CC1O` (configuration not stated) + Cc1ccccc1N=Nc1ccc(NC(=O)c2ccnn2C)c(C)c1 showed an IC50 [1] of 2500 nM, an IC50 [2] of 2350 nM and an IC50 [3] of 2480 nM. For the same molecule, the IC50 [4] was 2480 nM, the IC50 [5] was 2690 nM and the viability, T/C [10] was 143%. The viability, T/C [11] was 184%, the viability, T/C (second compound 0.1 µM, first compound 0.316 µM) was 253% and the viability, T/C (second compound 0.1 µM, first compound 1 µM) was 137%. For the same molecule, the viability, T/C (second compound 0.1 µM, first compound 3.16 µM) was 37.4%, the viability, T/C (second compound 0.1 µM, first compound 10 µM) was 18.3% and the viability, T/C [16] was 131%. For the same molecule, the viability, T/C [17] was 173%, the viability, T/C (second compound 0.316 µM, first compound 0.316 µM) was 240% and the viability, T/C (second compound 0.316 µM, first compound 1 µM) was 119%. For the same molecule, the viability, T/C (second compound 0.316 µM, first compound 3.16 µM) was 30.9%, the viability, T/C (second compound 0.316 µM, first compound 10 µM) was 20.6% and the viability, T/C [22] was 127%. For the same molecule, the viability, T/C [23] was 156%, the viability, T/C (second compound 1 µM, first compound 0.316 µM) was 256% and the viability, T/C (second compound 1 µM, first compound 1 µM) was 125%. The viability, T/C (second compound 1 µM, first compound 3.16 µM) was 39.3%, the viability, T/C (second compound 1 µM, first compound 10 µM) was 20.9% and the viability, T/C [28] was 121%. The viability, T/C [29] was 146%, the viability, T/C (second compound 3.16 µM, first compound 0.316 µM) was 233% and the viability, T/C (second compound 3.16 µM, first compound 1 µM) was 128%. The viability, T/C (second compound 3.16 µM, first compound 3.16 µM) was 37.4%, the viability, T/C (second compound 3.16 µM, first compound 10 µM) was 18.5% and the viability, T/C [34] was 118%. The viability, T/C [35] was 179%, the viability, T/C (second compound 10 µM, first compound 0.316 µM) was 210% and the viability, T/C (second compound 10 µM, first compound 1 µM) was 125%. The viability, T/C (second compound 10 µM, first compound 3.16 µM) was 43.6% and the viability, T/C (second compound 10 µM, first compound 10 µM) was 17.4%.
With `Cn1ncnc1C1c2n[nH]c(=O)c3cc(F)cc(c23)NC1c1ccc(F)cc1` (configuration not stated) + Cc1cncc(-c2nc(NCCc3c[nH]c4ccccc34)c3ncn(C(C)C)c3n2)c1 the IC50 [1] was greater than 100 nM, the IC50 [2] was greater than 100 nM and the IC50 [3] was greater than 100 nM. The IC50 [4] was greater than 100 nM, the IC50 [5] was greater than 100 nM and the viability, T/C [6] was 97.3%. The viability, T/C [7] was 97.5%, the viability, T/C [8] was 82.8% and the viability, T/C [9] was 80.6%. It also gave a viability, T/C [10] of 78%, a viability, T/C [11] of 75.2% and a viability, T/C [12] of 90.7%. The viability, T/C [13] was 97.4%, the viability, T/C [14] was 90.1% and the viability, T/C [15] was 86.5%. It also gave a viability, T/C [16] of 90.1%, a viability, T/C [17] of 80.9% and a viability, T/C [18] of 100%. The viability, T/C [19] was 101%, the viability, T/C [20] was 97.2% and the viability, T/C [21] was 87.5%. It also gave a viability, T/C [22] of 82.7%, a viability, T/C [23] of 88.7% and a viability, T/C [24] of 106%. It also gave a viability, T/C [25] of 106%, a viability, T/C [26] of 102% and a viability, T/C [27] of 103%. For the same molecule, the viability, T/C [28] was 98.2%, the viability, T/C [29] was 95.1% and the viability, T/C [30] was 51%. For the same molecule, the viability, T/C [31] was 56.3%, the viability, T/C [32] was 56.5% and the viability, T/C [33] was 61.2%. The viability, T/C [34] was 56.3% and the viability, T/C [35] was 62.6%.
For `Cn1ncnc1C1c2n[nH]c(=O)c3cc(F)cc(c23)NC1c1ccc(F)cc1` (configuration not stated), the viability, T/C (compound 0.000316 µM) was 105% (2×) and 85.5%, the viability, T/C (compound 0.001 µM) was 111% and 107% and 106% and the viability, T/C (compound 0.00316 µM) was 103% and 101% and 76.3%. For the same molecule, the viability, T/C (compound 0.01 µM) was 97.2% and 91.8% and 87.1%, the viability, T/C (compound 0.0316 µM) was 82.2% and 83.4% and 63.1% and the viability, T/C (compound 0.1 µM) was 75.4% and 77% and 89.1%. The IC50 (curve of compound) was greater than 100 nM.
